Test results taken from patent publication US8940774B2, “Tris-Quaternary Ammonium Salts and Methods for Modulating Neuronal Nicotinic Acetylcholine Receptors” (University of Kentucky Research Foundation, priority 2005, dated 2015).

Legend:
[1] = system: NIC-evoked [3H]DA release from rat striatal slices; assay: Nicotine-evoked [3H]dopamine release assay, superfused rat striatal slices; assay type: cell-based; conditions: 100 nM analog superfused 60 minutes prior to NIC (10 μM), percent of that in the absence of analog
Procedure: Rat striatal slices (500 μm thickness, 6-8 mg wet weight) were incubated for 30 minutes in Krebs buffer (118 mM NaCl, 4.7 mM KCl, 1.2 mM MgCl2, 1.0 mM NaH2PO4, 1.3 mM CaCl2, 11.1 mM glucose, 25 mM NaHCO3, 0.11 mM L-ascorbic acid and 0.004 mM disodium EDTA; pH 7.4, and saturated with 95% O2/5% CO2) in a metabolic shaker at 34° C. Slices were rinsed with 15 mL of fresh buffer and incubated for an additional 30 minutes in fresh buffer containing 0.1 μM [^3H]dopamine (DA; 6 slices/3 mL). Subsequently, slices were rinsed with 15 mL of fresh buffer and transferred to a glass superfusion chamber. Slices were superfused (1.0 mL/min) for 60 minutes with Krebs buffer containing nomifensine (10 μM) and pargyline (10 μM) and maintained at 34° C., pH 7.4 with continual aeration (95% O2/5% CO2). Two five minute samples (5 mL each) were collected to determine basal outflow of [^3H]DA. Analogs were added to the superfusion buffer after the collection of the second sample and remained in the buffer until 12 consecutive five minute samples were collected. Subsequently, S-(−)-nicotine (10 μM) was added to the buffer and an additional 12 consecutive five minute samples were collected. At the end of the experiment, each slice was solubilized and the [^3H] content of the tissue determined.
Radioactivity in the superfusate and tissue samples were determined by liquid scintillation spectroscopy. Fractional release for tritium collected in each sample was divided by the total tritium present at the time of sample collection and was expressed as a percentage of total tritium. Basal [^3H] outflow was calculated from the average of the tritium collected in the two five-minute samples just before addition of the analog. The sum of the increase in collected tritium resulting from either exposure to the test compound or exposure to S-(−)-nicotine in the absence cod presence of the test compound equaled total [^3H] overflow. [^3H] Overflow was calculated by subtracting the [^3H] outflow during an equivalent period of prestimulation from the values in samples collected during and after drug exposure. Inasmuch as the radiolabelled compounds were not separated and identified, the tritium in the superfusate is referred to as either [^3H] outflow or [^3H] overflow, rather than [^3H]DA. [^3H] Overflow primarily represents [^3H]DA in the presence of nomifesine and pargyline in the superfusion buffer. […]
Analogs were also evaluated for their ability to inhibit NIC evoked [^3H]DA release. In these experiments, the striatal slices were superfused for 60 minutes with 100 nM concentration of the analogs prior to NIC (10 μM) exposure. Antagonist activity was evaluated by comparing the NIC-evoked [^3H] overflow in the absence and presence of the analogs. The relative order of potency of the analogs for inhibition of NIC-evoked [^3H]DA release from rat striatal slices is illustrated in Table 1.
Data are % inhibition at 100 nM concentration of analog for at least 1-3 independent experiments. Specific binding in the [^3H]NIC binding assay is calculated at the difference between the total binding of [^3H]NIC and nonspecific binding in the presence of 10 μM cold nicotine. Specific binding for the [^3H]MLA binding assay is calculated as the difference between the total binding of 2.5 nM [^3H]MLA to the receptors alone and its nonspecific binding in the presence of 1 μM cold MLA. Analog-induced inhibition of nicotine-evoked [^3H]DA release is calculated as a percent of that in the absence of analog.

[2] = target: T1, α7 nicotinic receptor subtype expressed in Xenopus oocytes (Rattus norvegicus, UniProt Q05941); assay: Inhibition of ACh evoked current through nicotinic receptors expressed in Xenopus oocytes (α7); assay type: cell-based; conditions: co-application with acetylcholine; compared with α4β2, α3β2, α3β4; FIGS. 1-3
T1 construct: expressed in transfected cells; host or cells: Xenopus laevis oocytes injected with subunit cRNA
Procedure: Rat nicotinic receptor cDNAs clones were linearized and purified, and RNA transcripts were prepared in vitro using the appropriate mMessage mMachine kit. Mature (>9 cm) female Xenopus laevis African toads (Nasco, Ft. Atkinson, Wis.), housed in the Division of Lab Animal Resources at the University of Florida were used as a source of oocytes. Prior to surgery, frogs were anesthetized by placing the animal in a 1.5 g/L solution of MS222 for 30 minutes. Oocytes were removed from an incision made in the abdomen. In order to remove the follicular cell layer, harvested oocytes were treated with 1.25 mg/mL collagenase for 2 hours at room temperature in calcium-free Barth's solution (88 mM NaCl, 1 mM KCl, 2.38 mM NaHCO3, 0.82 mM MgSO4, 15 mM HEPES, pH 7.6, 0.1 mg/mL gentamicin sulfate). Subsequently, stage 5 oocytes were isolated and injected with 5-20 ng in 50 nL each of the appropriate subunit cRNAs. Recordings were made 2 to 15 days after injection.
Electrophysiology experiments were conducted using OpusXpress 6000A (Axon instruments, Union City, Calif.), or manual oocyte two-electrode voltage-clamp systems as previously reported (Stokes et al., 2004). […]
Each oocyte received two initial control applications of ACh, then a nicotine or analog application, and then a follow-up control application of ACh. […] Responses to each nicotine or analog application were calculated relative to the preceding ACh control responses in order to normalize the data, compensating for the varying levels of channel expression among the oocytes. […] Responses for α7 receptors were calculated as net charge (Papke et al., 2002). For subtypes other than α7, responses were calculated from the peak current amplitudes. Means and standard errors (SEM) were calculated from the normalized responses of at least four oocytes for each drug concentration. […]
For concentration-response relations, data derived from net-charge analyses were plotted using Kaleidagraph 3.0.2 (Abelbeck Software; Reading, Pa.) and curves were generated from the Hill equation […]

T1 sequence (Q05941 23-502): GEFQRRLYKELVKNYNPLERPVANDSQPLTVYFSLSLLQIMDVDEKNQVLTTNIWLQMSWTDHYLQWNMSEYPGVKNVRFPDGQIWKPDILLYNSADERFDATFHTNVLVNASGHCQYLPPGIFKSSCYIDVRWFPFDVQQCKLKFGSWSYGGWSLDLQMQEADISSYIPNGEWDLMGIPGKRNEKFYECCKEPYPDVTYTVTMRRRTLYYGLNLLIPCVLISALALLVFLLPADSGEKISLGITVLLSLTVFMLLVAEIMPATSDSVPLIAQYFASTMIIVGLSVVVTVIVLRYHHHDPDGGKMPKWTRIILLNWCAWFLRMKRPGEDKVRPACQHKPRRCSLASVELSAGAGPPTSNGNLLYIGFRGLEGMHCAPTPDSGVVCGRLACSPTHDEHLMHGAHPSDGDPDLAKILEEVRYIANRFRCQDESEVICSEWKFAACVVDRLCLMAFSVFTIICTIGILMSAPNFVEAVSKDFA

Structure (SMILES): CN1CCC[C@H]1c1ccc[n+](CCCC#Cc2cc(C#CCCC[n+]3cccc([C@@H]4CCCN4C)c3)cc(C#CCCC[n+]3cccc([C@@H]4CCCN4C)c3)c2)c1 [GZ551B, 1,3,5-tris-{5-[3-(1-methyl-2-S-pyrrolidinyl)pyridinium]-pent-1-ynyl}-benzene tribromide]
- inhibition at 0.1 µM [1]: 63%
- inhibition of ACh response at α7 nicotinic receptor subtype (concentration-response, in words) [2]: most potent as an inhibitor of the α7 nicotinic receptor subtype, but was not selective

Structure (SMILES): CCCCc1ccc[n+](CCCC#Cc2cc(C#CCCC[n+]3cccc(CCCC)c3)cc(C#CCCC[n+]3cccc(CCCC)c3)c2)c1 [GZ551A, 1,3,5-tris-[5-(3-butyl-pyridinium)-pent-1-ynyl]-benzene tribromide]
- inhibition at 0.1 µM [1]: 52%
- inhibition of ACh response at α7 nicotinic receptor subtype (concentration-response, in words) [2]: potent and selective inhibitor

Structure (SMILES): CN1CCC[C@H]1c1ccc[n+](CCCCCc2cc(CCCCC[n+]3cccc([C@@H]4CCCN4C)c3)cc(CCCCC[n+]3cccc([C@@H]4CCCN4C)c3)c2)c1 [GZ558C, 1,3,5-tris-{5-[3-(1-methyl-2-S-pyrrolidinyl)pyridinium]-pentyl}-benzene tribromide]
- inhibition at 0.1 µM [1]: 35%
- inhibition of ACh response at α7 nicotinic receptor subtype (concentration-response, in words) [2]: potent and selective inhibitor
